In US20030040510A1, “Selective estrogen receptor modulators in combination with estrogens” (Endorecherche, Inc., priority 2000, published 2003):
Where “and” joins values, the source holds several entries; their conditions need not be identical. Equal values may be shown once. Where a name gives a salt, the structure may show the parent alone. Values belong to the compound of their own block, whether it stands above or below them.

Tests used:
[1] = system: breast and endometrial tissues; assay: Antiestrogens tested for SERM function and estrogenic activity in breast and endometrium; conditions: for Estrogenic activity in breast and endometrial tissues: physiological or pharmacological concentrations
Excerpt: As used herein, a selective estrogen receptor modulator (SERM) is a compound that either directly or through its active metabolite functions as an estrogen receptor antagonist (“antiestrogen”) in breast tissue, yet provides estrogenic or estrogen-like effect on bone tissue and on serum cholesterol levels (i.e. by reducing serum cholesterol). Non-steroidal compounds that function as estrogen receptor antagonists in vitro or in human or rat breast tissue (especially if the compound acts as an antiestrogen on human breast cancer cells) is likely to function as a SERM. Conversely, steroidal antiestrogens tend not to function as SERMs because they tend not to display any beneficial effect on serum cholesterol. […] These SERMs may be called “pure SERMs”. […] This second series of SERMs may be called “mixed SERMs”. The unwanted estrogenic activities of these “mixed SERMs”, may be inhibited by addition of pure “SERMs” as shown in FIGS. 6 and 7 in in vitro tests and in FIG. 9 in an in vivo test of breast cancer.

[2] = system: ZR-75-1 breast tumor xenografts; assay: Growth of human ZR-75-1 breast tumor xenografts in OVX nude mice supplemented with estrone (DHEA, EM-800; Example 1); conditions: OVX + E1 (0.5 μg) alone, 9.5 months
ZR-75-1 breast tumors = assay: Growth and response category of human ZR-75-1 breast tumors in OVX nude mice, 7 antiestrogens, 161 days (Example 8); assay type: in vivo; conditions: 161 days
Method: The mice (5 per cage) were housed in vinyl cages equipped with air filter lids, which were kept in laminar airflow hoods and maintained under pathogen-limiting conditions. The photoperiod was 12 hours of light and 12 hours of darkness (lights on at 07:15). Cages, bedding and food (Agway Pro-Lab R-M-H Diet #4018) were autoclaved before use. Water was autoclaved and provided ad libitum. Bilateral ovariectomy was performed under isoflurane-induced anesthesia. […] Randomization and treatments were started one week later. […] The 17 groups included two control groups (OVX and OVX+Estrone), seven groups supplemented with an estrone implant and treated with an antiestrogen and eight other groups that received an antiestrogen alone. The estrone implants were then removed from the animals in the ovariectomized control group (OVX) and in groups that were to receive the antiestrogen alone. […] Tamoxifen was purchased from […], Israel) while toremifene citrate was purchased from Orion (Espoo, Finland). […] Animals in both control groups received 0.2 ml of the vehicle alone. The antiestrogen suspensions at the appropriate concentration were prepared each month, stored at 4° C. and used under constant agitation. Powder stock were hermetically stored at 4° C. […] Tumor response was assessed at the end of the study or at death of each animal, if it occurred during the course of the experiment. In this case, only data of mice that survived for at least half of the study (84 days) were used in the tumor response analysis.

[3] = Tissue distribution of radioactivity after a single oral dose of ^14C-EM-800; assay type: in vivo, female Long-Evans rats; conditions: for Drug-derived radioactivity, brain / Drug-derived radioactivity, blood / Drug-derived radioactivity, plasma: 20 mg/kg
[4] = system: ovariectomized female rats; assay: Prevention of bone loss, body fat, serum cholesterol and ALP, 26-week treatment of OVX rats (Example 5A, experiment 2); assay type: in vivo, Sprague-Dawley rats; conditions: 26 weeks
Method: Ten to twelve week-old female Sprague-Dawley rats (Crl:CD(SD)Br) (Charles River Laboratory, St-Constant, Canada) weighing approximately 220-270 g at start of treatment were used. The animals were acclimatized to the environmental conditions (temperature: 22±3° C.; humidity: 50±20%; 12-h light-12-h dark cycles, lights on at 07:15 h) for at least 1 week before starting the experiments. The animals were housed individually and were allowed free access to tap water and a pelleted certified rodent feed (Lab Diet 5002, Ralston Purina, St-Louis, Mo.). Experiments were conducted in an animal facility approved by the Canadian Council on Animal Care (CCAC) and the Association for Assessment and Accreditation of Laboratory Animal Care (AAALAC) in accordance with the CCAC Guide for Care and Use of Experimental Animals.
On day 1 of the study, the animals of the appropriate groups were bilaterally OVX under isoflurane anesthesia. Tested compounds were administered as suspension in 0.4% methylcellulose by oral gavage. Treatments were initiated on day 2 of the study and were performed once daily during 26 weeks. In both experiments, animals not receiving a test article were treated with the appropriate vehicle alone during the same period.
After 3 months (experiment 1) or 26 weeks (experiment 2) of treatment, individual rats under Isoflurane anesthesia had their whole body skeleton and lumbar spine scanned using dual energy x-ray absorptiometry (DEXA; QDR 4500A, Hologic, Waltham, Mass.) and a Regional High Resolution Scan software. The bone mineral density (BMD) of the lumbar spine (vertebrae L2 to L4) and the total body composition (fat percentage) were determined.
After 3 months (experiment 1) or 26 weeks (experiment 2) of treatment, blood samples were collected at the jugular vein from overnight fasted animals (under Isoflurane anesthesia). Samples were processed for serum preparation and frozen at −80° C. until assay. Serum cholesterol levels and alkaline phospatase activity (ALP) were determined using the Boehringer Mannheim Diagnostic Hitachi 911 Analyzer (Boehringer Mannheim Diagnostic Laboratory Systems).

[5] = 200 μg daily, absence of estrone

SMILES: C[C@]12CC[C@@H]3c4ccc(O)cc4C[C@@H](CCCCCCCCC[S+]([O-])CCCC(F)(F)C(F)(F)F)[C@H]3[C@@H]1CC[C@@H]2O (stereo partly shown) [ICI 182,780]
- Function as SERM [1]: not to function as a-SERMs

SMILES: C[C@]12CC[C@@H]3c4ccc(O)cc4CC[C@H]3[C@@H]1CCC2=O [E1, Estrone, reference compound]
- Category of response: Complete [2]: 0 (0) Number and (%)
- Category of response: Partial [2]: 0 (0) Number and (%)
- Category of response: Progression [2]: 14 (87.5) Number and (%)
- Category of response: Complete ([2]; listed as estrone): 0 Number and (%)

SMILES: CCC(=C(c1ccc(O)cc1)c1ccc(OCCN(C)C)cc1)c1ccccc1 [4-hydroxy-Tamoxifen, 1-(4-dimethylaminoethoxyphenyl)-1-(4-hydroxyphenyl)-2-phenyl-but-1-ene]
- Function as SERM [1]: found to function as SERMs
- Estrogenic activity in breast and endometrial tissues [1]: have some estrogenic activities

SMILES: Cc1c(-c2ccc(O)cc2)n(Cc2ccc(OCCN3CCCCCC3)cc2)c2ccc(O)cc12 [TSE 424]
- Function as SERM [1]: found to function as SERMs

SMILES: Cl.Oc1ccc(-c2sc3cc(O)ccc3c2Oc2ccc(OCCN3CCCCC3)cc2)cc1 [LY 335 563, 6-hydroxy-3-[4-[2-(1-piperidinyl)ethoxy]phenoxyl]-2-(4-hydroxyphenyl) benzo[b]thiopene hydrochloride]
- Function as SERM [1]: found to function as SERMs
- Estrogenic activity in breast and endometrial tissues [1]: have some estrogenic activities

SMILES: CN(C)CCOc1ccc(/C(=C(/CCCl)c2ccccc2)c2ccc(O)cc2)cc1 [OH-Toremifene, (Z)-(2)-2-[4-(4-chloro-1-(4-hydroxyphenyl)-2-phenyl-1-butenyl)phenoxy]-N,N-dimethyletha namine]
- Function as SERM [1]: found to function as SERMs
- Estrogenic activity in breast and endometrial tissues [1]: have some estrogenic activities

SMILES: CC/C(=C(\c1ccccc1)c1ccc(OCCN(C)C)cc1)c1ccccc1 [Tamoxifen, (Z)-2-[4-(1,2-diphenyl-1-butenyl)phenoxy]-N,N-dimethylethanamine]
- Progressing tumors (ZR-75-1 breast tumors; 50 μg daily + estrone): 65%
- Progressing tumors (ZR-75-1 breast tumors; [5]): 62%
- Function as SERM [1]: found to function as SERMs
- Estrogenic activity in breast and endometrial tissues [1]: have some estrogenic activities

- Radioactivity in the brain lower than in liver ([3]; 2 hours): 412
- Radioactivity in the brain lower than in plasma ([3]; 2 hours): 13 times
- Radioactivity in the brain lower than in the blood ([3]; 2 hours): 8.4 times
- Radioactivity in the brain lower than in the uterus ([3]; 2 hours): 21 times
- Drug-derived radioactivity, liver ([3]; 2 hr, 20 mg/kg oral): 7.2547 μg EM-800 equiv/g tissue
- Drug-derived radioactivity, uterus ([3]; 2 hr, 20 mg/kg oral): 0.3675 μg EM-800 equiv/g tissue
- Drug-derived radioactivity, liver ([3]; 4 hr, 20 mg/kg oral): 3.2201 μg EM-800 equiv/g tissue
- Drug-derived radioactivity, uterus ([3]; 4 hr, 20 mg/kg oral): 0.2866 μg EM-800 equiv/g tissue
- Drug-derived radioactivity, liver ([3]; 6 hr, 20 mg/kg oral): 2.7462 μg EM-800 equiv/g tissue
- Drug-derived radioactivity, uterus ([3]; 6 hr, 20 mg/kg oral): 0.2757 μg EM-800 equiv/g tissue
- Drug-derived radioactivity, liver ([3]; 8 hr, 20 mg/kg oral): 2.7748 μg EM-800 equiv/g tissue
- Drug-derived radioactivity, uterus ([3]; 8 hr, 20 mg/kg oral): 0.3332 μg EM-800 equiv/g tissue
- Drug-derived radioactivity, liver ([3]; 12 hr, 20 mg/kg oral): 1.8232 μg EM-800 equiv/g tissue
- Drug-derived radioactivity, uterus ([3]; 12 hr, 20 mg/kg oral): 0.2407 μg EM-800 equiv/g tissue
- Drug-derived radioactivity, liver ([3]; 24 hr, 20 mg/kg oral): 0.6391 μg EM-800 equiv/g tissue
- Drug-derived radioactivity, uterus ([3]; 24 hr, 20 mg/kg oral): 0.0837 μg EM-800 equiv/g tissue
- Drug-derived radioactivity, liver ([3]; 36 hr, 20 mg/kg oral): 0.4034 μg EM-800 equiv/g tissue
- Drug-derived radioactivity, uterus ([3]; 36 hr, 20 mg/kg oral): 0.0261 μg EM-800 equiv/g tissue
- Drug-derived radioactivity, liver ([3]; 48 hr, 20 mg/kg oral): 0.2196 μg EM-800 equiv/g tissue
- Drug-derived radioactivity, uterus ([3]; 48 hr, 20 mg/kg oral): 0.0238 μg EM-800 equiv/g tissue
- Drug-derived radioactivity, liver ([3]; 72 hr, 20 mg/kg oral): 0.1326 μg EM-800 equiv/g tissue
- Drug-derived radioactivity, uterus ([3]; 72 hr, 20 mg/kg oral): 0 μg EM-800 equiv/g tissue
- Drug-derived radioactivity, liver ([3]; 96 hr, 20 mg/kg oral): 0.0944 μg EM-800 equiv/g tissue
- Drug-derived radioactivity, uterus ([3]; 96 hr, 20 mg/kg oral): 0 μg EM-800 equiv/g tissue
- Drug-derived radioactivity, liver ([3]; 168 hr, 20 mg/kg oral): 0.0348 μg EM-800 equiv/g tissue
- Drug-derived radioactivity, uterus ([3]; 168 hr, 20 mg/kg oral): 0 μg EM-800 equiv/g tissue
- Total drug-derived radioactivity in the brain ([3]; female Long-Evans rats, 20 mg/kg oral): not detected after 12 hr post dose
SMILES: CC1=C(c2ccc(OC(=O)C(C)(C)C)cc2)[C@H](c2ccc(OCCN3CCCCC3)cc2)Oc2cc(OC(=O)C(C)(C)C)ccc21 [^14C-EM-800]
- Drug-derived radioactivity, brain ([3]; 24 hr, 20 mg/kg oral): 0 ng EM-800 equiv/g tissue and 0 μg EM-800 equiv/g tissue
- Drug-derived radioactivity, blood ([3]; 36 hr, 20 mg/kg oral): 0 ng EM-800 equiv/g tissue and 0 μg EM-800 equiv/g tissue
- Drug-derived radioactivity, brain ([3]; 36 hr, 20 mg/kg oral): 0 ng EM-800 equiv/g tissue and 0 μg EM-800 equiv/g tissue
- Drug-derived radioactivity, plasma ([3]; 36 hr, 20 mg/kg oral): 0 ng EM-800 equiv/g tissue and 0 μg EM-800 equiv/g tissue
- Drug-derived radioactivity, blood ([3]; 48 hr, 20 mg/kg oral): 0 ng EM-800 equiv/g tissue and 0 μg EM-800 equiv/g tissue
- Drug-derived radioactivity, brain ([3]; 48 hr, 20 mg/kg oral): 0 ng EM-800 equiv/g tissue and 0 μg EM-800 equiv/g tissue
- Drug-derived radioactivity, plasma ([3]; 48 hr, 20 mg/kg oral): 0 ng EM-800 equiv/g tissue and 0 μg EM-800 equiv/g tissue
- Drug-derived radioactivity, blood ([3]; 72 hr, 20 mg/kg oral): 0 ng EM-800 equiv/g tissue and 0 μg EM-800 equiv/g tissue
- Drug-derived radioactivity, brain ([3]; 72 hr, 20 mg/kg oral): 0 ng EM-800 equiv/g tissue and 0 μg EM-800 equiv/g tissue
- Drug-derived radioactivity, plasma ([3]; 72 hr, 20 mg/kg oral): 0 ng EM-800 equiv/g tissue and 0 μg EM-800 equiv/g tissue
- Drug-derived radioactivity, blood ([3]; 96 hr, 20 mg/kg oral): 0 ng EM-800 equiv/g tissue and 0 μg EM-800 equiv/g tissue
- Drug-derived radioactivity, brain ([3]; 96 hr, 20 mg/kg oral): 0 ng EM-800 equiv/g tissue and 0 μg EM-800 equiv/g tissue
- Drug-derived radioactivity, plasma ([3]; 96 hr, 20 mg/kg oral): 0 ng EM-800 equiv/g tissue and 0 μg EM-800 equiv/g tissue
- Drug-derived radioactivity, blood ([3]; 168 hr, 20 mg/kg oral): 0 ng EM-800 equiv/g tissue and 0 μg EM-800 equiv/g tissue
- Drug-derived radioactivity, brain ([3]; 168 hr, 20 mg/kg oral): 0 ng EM-800 equiv/g tissue and 0 μg EM-800 equiv/g tissue
- Drug-derived radioactivity, plasma ([3]; 168 hr, 20 mg/kg oral): 0 ng EM-800 equiv/g tissue and 0 μg EM-800 equiv/g tissue

SMILES: Oc1ccc2c(c1)CC[C@H](c1ccccc1)[C@@H]2c1ccc(OCCN2CCCC2)cc1 (racemic) [Lasofoxifene, cis-1R-[4′-pyrrolidino-ethoxyphenyl]-2S-phenyl-6-hydroxy-1,2,3,4,-tetrahydronaphthalene D-(−)-tartrate salt]
- Serum cholesterol ([4]; OVX rats): 0.60 ± 0.02 mmol/L
- OVX-induced increase on serum cholesterol levels ([4]; alone or in combination with Premarin): completely prevented
- Function as SERM [1]: found to function as SERMs

SMILES: CN(C)CCOc1ccc(/C(=C(/CCCl)c2ccccc2)c2ccccc2)cc1 [Toremifene, (Z)-2-[4-(4-Chloro-1,2-diphenyl-1-butenyl)phenoxy]-N,N-dimethylethanamine]
- Progressing tumors (ZR-75-1 breast tumors; 50 μg daily + estrone): 89%
- Increase of average tumor size over baseline (ZR-75-1 breast tumors; [5]): 86%
- Progressing tumors (ZR-75-1 breast tumors; [5]): 21%
- Function as SERM [1]: found to function as SERMs
- Estrogenic activity in breast and endometrial tissues [1]: have some estrogenic activities
